Data taken from the supplement of paper PMC8882468.

Columns and labels:
HCI-027 = organoid from a triple-negative breast cancer xenograft; assay: CTG-3D luminescence at 96 h relative to day-0 seeding control (ratio to day 0); higher = more growth / less cytotoxicity; PDxO 3D drug screen, 96 h, CTG-3D normalised to day-0 seeding control.
HCI-025 = organoid from a breast cancer xenograft; assay: as above
HCI-003.E2 = organoid from an ER-positive breast cancer xenograft; assay: as above
HCI-024 = organoid from a breast cancer xenograft; assay: as above
HCI-016 = organoid from a triple-negative breast cancer xenograft; assay: as above
HCI-012 = organoid from a breast cancer xenograft; assay: CTG-3D luminescence at 96 h relative to day-0 seeding control (ratio to day 0); higher = more growth / less cytotoxicity; PDxO 3D drug screen (set 2), 96 h, CTG-3D normalised to day-0 seeding control.

CC(C)n1nc(-c2ccc3oc(N)nc3c2)c2c(N)ncnc21 [sapanisertib]
CTG-3D luminescence at 96 h
Conditions | 12.5 pM | 0.00025 µM | 0.005 µM | 0.1 µM | 1 µM | 10 µM | 100 µM | 625 fM
HCI-012, days in culture: 214 | 3 | 1.84 | 1.05 | 1.27 | 0.635 | 0.331 | 0.0967 | 2.11
HCI-012, days in culture: 243 | 1.95 | 2.36 | 1.77 | 1.16 | 0.476 | 0.522 | 0.156 | 3.05
HCI-012, days in culture: 256 | 2.05 | 2.28 | 2.44 | 1.31 | 0.395 | 0.305 | 0.171 | 2.12
HCI-012, days in culture: 284 | 1.65 | 2.83 | 1.59 | 1.13 | 0.451 | 0.248 | 0.147 | 3.7
HCI-016, days in culture: 153 | 2.9 | 1.03 | 2.18 | 0.842 | 0.922 | 0.411 | 0.0999 | 3.03
HCI-016, days in culture: 172 | 1.87 | 2.06 | 1.85 | 0.699 | 0.584 | 0.407 | 0.191 | 1.68
HCI-016, days in culture: 190 | 1.66 | 1.47 | 1.49 | 0.534 | 0.464 | 0.421 | 0.149 | 1.23
HCI-016, days in culture: 199 | 1.5 | 1.27 | 1.33 | 0.585 | 0.511 | 0.374 | 0.119 | 1.63
HCI-024, days in culture: 105 | 1.5 | 1.82 | 1.16 | 0.885 | 0.716 | 0.64 | 0.243 | 1.88
HCI-024, days in culture: 122 | 2.28 | 2.85 | 1.86 | 0.922 | 0.842 | 0.81 | 0.3 | 2.57
HCI-024, days in culture: 163 | 2.15 | 1.91 | 1.59 | 1.61 | 1.1 | 0.902 | 0.363 | 1.85
HCI-025, days in culture: 172 | 2.78 | 1.04 | 1.61 | 0.407 | 0.372 | 0.145 | 0.00492 | 2.01
HCI-025, days in culture: 209 | 1.39 | 2.18 | 1.62 | 0.44 | 0.256 | 0.217 | 0.0409 | 1.33
HCI-025, days in culture: 218 | 1.85 | 2.15 | 1.44 | 0.421 | 0.231 | 0.291 | 0.0278 | 1.99
HCI-027, days in culture: 176 | 2.05 | 1.48 | 2.22 | 0.7 | 0.529 | 0.264 | 0.0926 | 1.82
HCI-027, days in culture: 194 | 1.72 | 1.59 | 1.5 | 0.847 | 0.824 | 0.441 | 0.102 | 1.57
HCI-027, days in culture: 201 | 2.25 | 1.83 | 2.1 | 0.956 | 0.784 | 0.301 | 0.141 | 2.47

HCI-003.E2
Conditions | CTG-3D luminescence at 96 h
12.5 pM | 2.24
0.00025 µM | 2.55
0.005 µM | 1.59
0.1 µM | 0.0566
1 µM | 0.0162
10 µM | 0.0035
100 µM | -0.00157
625 fM | 2.03

Cc1cc(Nc2ncc(Cl)c(Nc3ccccc3S(=O)(=O)C(C)C)n2)c(OC(C)C)cc1C1CCNCC1 [ceritinib]
CTG-3D luminescence at 96 h
Conditions | 12.5 pM | 0.00025 µM | 0.005 µM | 0.1 µM | 1 µM | 10 µM | 100 µM | 625 fM
HCI-016, days in culture: 153 | 3.1 | 1.87 | 2.13 | 1.93 | 2.1 | 0.0113 | -0.00664 | 2.35
HCI-016, days in culture: 172 | 2.65 | 2.04 | 1.89 | 1.31 | 1.46 | 0.00857 | -0.00483 | 2.1
HCI-016, days in culture: 190 | 1.83 | 1.16 | 1.62 | 1.01 | 1.42 | 0.0979 | -0.0035 | 1.25
HCI-016, days in culture: 199 | 1.55 | 1.22 | 1.18 | 1.49 | 1.36 | 0.0047 | -0.00558 | 1.96
HCI-024, days in culture: 105 | 1.05 | 1.3 | 1.22 | 1.29 | 1.11 | 0.00435 | -0.0037 | 1.39
HCI-024, days in culture: 122 | 1.49 | 2.05 | 1.23 | 1.88 | 1.16 | 0.00674 | -0.00377 | 2.07
HCI-024, days in culture: 163 | 2.38 | 2.03 | 1.59 | 2.47 | 1.74 | 0.107 | -0.00554 | 2.78
HCI-025, days in culture: 172 | 2.83 | 2.05 | 3.23 | 2.01 | 2.79 | 0.00721 | -0.00729 | 2.37
HCI-025, days in culture: 209 | 1.92 | 1.29 | 1.23 | 1.33 | 1.33 | 0.628 | -0.00366 | 1.68
HCI-025, days in culture: 218 | 2.02 | 1.87 | 1.86 | 1.8 | 1.36 | 1.48 | -0.00328 | 2.18
HCI-027, days in culture: 176 | 2.26 | 1.27 | 2.21 | 1.68 | 1.81 | 0.00647 | -0.00642 | 2.34
HCI-027, days in culture: 194 | 1.42 | 1.26 | 1.1 | 1.96 | 1.8 | 0.0105 | -0.00633 | 1.39
HCI-027, days in culture: 201 | 2.21 | 1.72 | 1.65 | 1.66 | 1.47 | 0.0089 | -0.00463 | 1.31

HCI-003.E2
Conditions | CTG-3D luminescence at 96 h
12.5 pM | 2.16
0.00025 µM | 2.04
0.005 µM | 1.82
0.1 µM | 2.06
1 µM | 2.05
10 µM | 0.388
100 µM | 0.0194
625 fM | 2.21

C=CCn1c(=O)c2cnc(Nc3ccc(N4CCN(C)CC4)cc3)nc2n1-c1cccc(C(C)(C)O)n1 [adavosertib]
CTG-3D luminescence at 96 h
Conditions | 12.5 pM | 0.00025 µM | 0.005 µM | 0.1 µM | 1 µM | 10 µM | 100 µM | 625 fM
HCI-016, days in culture: 153 | 3.14 | 2.15 | 2.59 | 2.27 | 0.264 | 0.0723 | 0.0508 | 3.11
HCI-016, days in culture: 172 | 2.14 | 1.63 | 1.55 | 1.14 | 0.176 | 0.0497 | 0.0492 | 1.62
HCI-016, days in culture: 190 | 1.64 | 1.28 | 1.36 | 0.602 | 0.0834 | 0.0505 | 0.0792 | 1.02
HCI-016, days in culture: 199 | 1.57 | 1.35 | 1.53 | 1.52 | 0.172 | 0.0306 | 0.0372 | 1.43
HCI-024, days in culture: 105 | 1.61 | 1.66 | 1.14 | 1.44 | 0.852 | 0.412 | 0.179 | 2.06
HCI-024, days in culture: 122 | 1.86 | 2.07 | 1.99 | 2.01 | 1.38 | 0.414 | 0.145 | 2.52
HCI-024, days in culture: 163 | 2.11 | 2.21 | 1.86 | 2.44 | 1.82 | 0.466 | 0.225 | 2.56
HCI-025, days in culture: 172 | 2.76 | 1.83 | 3.85 | 2 | 1.8 | 0.188 | 0.128 | 1.79
HCI-025, days in culture: 209 | 1.68 | 1.93 | 1.69 | 1.36 | 1.03 | 0.124 | 0.157 | 2.05
HCI-025, days in culture: 218 | 1.7 | 1.86 | 1.94 | 1.75 | 1.05 | 0.215 | 0.0695 | 1.86
HCI-027, days in culture: 176 | 1.72 | 1.45 | 2.67 | 1.21 | 0.185 | 0.0765 | 0.0542 | 2.5
HCI-027, days in culture: 194 | 1.64 | 1.52 | 1.33 | 1.65 | 0.158 | 0.0827 | 0.0536 | 1.42
HCI-027, days in culture: 201 | 1.68 | 1.69 | 2.08 | 2.23 | 0.149 | 0.0964 | 0.0691 | 1.7

HCI-003.E2
Conditions | CTG-3D luminescence at 96 h
12.5 pM | 2.18
0.00025 µM | 2.35
0.005 µM | 2.25
0.1 µM | 2.28
1 µM | 1.54
10 µM | 0.668
100 µM | 0.388
625 fM | 2.01

CCN(c1cc(C#CCN2CCOCC2)cc(C(=O)NCc2c(C)cc(C)[nH]c2=O)c1C)[C@H]1CC[C@H](N(C)CCOC)CC1
CTG-3D luminescence at 96 h
Conditions | 12.5 pM | 0.00025 µM | 0.005 µM | 0.1 µM | 1 µM | 10 µM | 100 µM | 625 fM
HCI-016, days in culture: 153 | 2.92 | 1.14 | 2.22 | 1.64 | 2.25 | 2.06 | 1.5 | 3.1
HCI-016, days in culture: 172 | 2.13 | 2.17 | 1.72 | 1.56 | 2.1 | 1.64 | 1.52 | 1.33
HCI-016, days in culture: 190 | 2.02 | 1.67 | 1.75 | 1.5 | 1.73 | 1.62 | 1.56 | 1.36
HCI-016, days in culture: 199 | 1.74 | 2.22 | 2.22 | 1.86 | 2.01 | 1.95 | 2.02 | 2.09
HCI-024, days in culture: 105 | 1.44 | 1.62 | 1.27 | 1.53 | 1.77 | 2.22 | 1.53 | 1.42
HCI-024, days in culture: 122 | 1.71 | 2.29 | 2.04 | 1.85 | 2.34 | 3.46 | 1.5 | 2.18
HCI-024, days in culture: 163 | 1.65 | 2.26 | 1.77 | 2.62 | 2.29 | 2.35 | 1.91 | 1.9
HCI-025, days in culture: 172 | 2.86 | 2.03 | 3.74 | 2.35 | 2.66 | 1.89 | 2.28 | 2.74
HCI-025, days in culture: 209 | 2.08 | 3.04 | 2.37 | 1.7 | 2.53 | 1.47 | 1.54 | 2.18
HCI-025, days in culture: 218 | 1.66 | 1.66 | 1.76 | 1.73 | 1.43 | 2.1 | 1.58 | 1.76
HCI-027, days in culture: 176 | 2.06 | 2.13 | 3.35 | 1.65 | 1.87 | 2.06 | 1.32 | 2.38
HCI-027, days in culture: 194 | 2.66 | 1.86 | 2.09 | 2.1 | 2.03 | 2.21 | 2.02 | 1.98
HCI-027, days in culture: 201 | 3.28 | 3.2 | 2.92 | 2.89 | 3.09 | 2.64 | 2.22 | 2.42

HCI-003.E2
Conditions | CTG-3D luminescence at 96 h
12.5 pM | 1.84
0.00025 µM | 2.12
0.005 µM | 1.71
0.1 µM | 1.96
1 µM | 1.74
10 µM | 1.89
100 µM | 0.658
625 fM | 1.65
